Assay results as given in patent US9725459B2, “3-oxo-tetrahydro-furo[3,2-B]pyrrol-4(5H)-yl) derivatives I” (GRÜNENTHAL GMBH, priority 2014, dated 2017).

Tests used:
Type in all cases: biochemical
[1] = target: human cathepsin L (CatL) (Homo sapiens (Human), UniProt P07711); assay: CatL functional enzyme assay; details: read-out: hCatL, inhibition [%] at 31.6 μM
[2] = target: human cathepsin K (CatK) (Homo sapiens (Human), UniProt P43235); assay: CatK functional enzyme assay; details: recombinant human CatK, substrate Z-FR-AMC 40 μM, pH 5.5; Ki by Cheng Prusoff equation; read-out: hCatK, Ki
Procedure, shortened: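 Recombinant human enzymes in 50 mM NaOAc, 10 mM EDTA, 1 mM DTT, 0.01% Triton X-100, pH 5.5, 10 min at RT. CatK: 0.00175 mU/well with 40 μM Z-FR-AMC; CatL: 0.000874 mU/well with 40 μM Z-VVR-AMC. AMC fluorescence read; IC50 converted to Ki via Cheng–Prusoff.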

[3] = target: human cathepsin S (CatS) (Homo sapiens (Human), UniProt P25774); assay: CatS functional enzyme assay; details: for Selectivity Ki(hCatS)/Ki(hCatK): ratio Ki(hCatS)/Ki(hCatK); for Ki: recombinant human CatS, substrate Z-VVR-AMC 5 μM, pH 6.5, Ki by Cheng Prusoff equation, read-out: hCatS, Ki
Procedure, shortened: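 Recombinant human enzymes were incubated 10 min at RT with AMC substrate: CatS 0.0007 mU/well with Z-VVR-AMC 5 µM; CatK 0.00175 mU/well with Z-FR-AMC 40 µM; CatL 0.000874 mU/well with Z-VVR-AMC 40 µM. Fluorescence gave IC50, converted to Ki by Cheng-Prusoff.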

human cathepsin K (CatK), sequence (P43235 115-329): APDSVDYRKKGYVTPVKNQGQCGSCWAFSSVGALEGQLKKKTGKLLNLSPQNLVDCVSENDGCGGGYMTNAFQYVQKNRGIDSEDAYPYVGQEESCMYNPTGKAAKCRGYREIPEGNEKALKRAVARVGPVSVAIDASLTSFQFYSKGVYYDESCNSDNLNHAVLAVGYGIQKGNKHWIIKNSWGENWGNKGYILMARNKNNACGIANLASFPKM
human cathepsin S (CatS), sequence (P25774 115-331): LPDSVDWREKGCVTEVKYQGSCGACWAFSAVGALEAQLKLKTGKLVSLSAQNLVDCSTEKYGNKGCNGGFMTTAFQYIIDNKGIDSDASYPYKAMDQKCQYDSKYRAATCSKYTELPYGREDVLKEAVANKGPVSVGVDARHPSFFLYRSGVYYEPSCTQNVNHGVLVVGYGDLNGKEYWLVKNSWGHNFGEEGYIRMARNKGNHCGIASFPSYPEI
human cathepsin L (CatL), sequence (P07711 114-333): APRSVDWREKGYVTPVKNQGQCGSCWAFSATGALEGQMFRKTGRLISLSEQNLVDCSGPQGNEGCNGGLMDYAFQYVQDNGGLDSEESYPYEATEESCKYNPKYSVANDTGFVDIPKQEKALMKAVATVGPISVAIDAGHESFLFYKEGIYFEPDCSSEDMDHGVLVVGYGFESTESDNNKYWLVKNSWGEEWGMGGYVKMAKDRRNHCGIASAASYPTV

Row | Structure (SMILES) | inhibition at 31.6 µM [1] [%] | Ki [2] [nM] | Selectivity Ki(hCatS)/Ki(hCatK) [3] | Ki [3] [nM]
1 | O=C(N[C@H](C(=O)N1C[C@H](Cl)[C@H]2OCC(=O)[C@H]21)C1CCCCC1)c1ncc(-c2cncc(F)c2)s1 [Example 47, N-((S)-2-((3aS,6S,6aS)-6-chloro-3-oxotetrahydro-2H-furo[3,2-b]pyrrol-4(5H)-yl)-1-cyclohexyl-2-oxoethyl)-5-(5-fluoropyridin-3-yl)thiazole-2-carboxamide] | 28 | 20 | 11.1 | 221
2 | O=C(N[C@H](C(=O)N1C[C@H](Cl)[C@H]2OCC(=O)[C@H]21)C1CCCCC1)c1ncc(-c2ccncc2)s1 [Example 49, N-((S)-2-((3aS,6S,6aS)-6-chloro-3-oxotetrahydro-2H-furo[3,2-b]pyrrol-4(5H)-yl)-1-cyclohexyl-2-oxoethyl)-5-(pyridin-4-yl)thiazole-2-carboxamide] | 4 | 9 | 41.8 | 376
3 | O=C(N[C@H](C(=O)N1C[C@H](Cl)[C@H]2OCC(=O)[C@H]21)C1CCCCC1)c1ncc(-c2ccncc2F)s1 [Example 50, N-((S)-2-((3aS,6S,6aS)-6-chloro-3-oxotetrahydro-2H-furo[3,2-b]pyrrol-4(5H)-yl)-1-cyclohexyl-2-oxoethyl)-5-(3-fluoropyridin-4-yl)thiazole-2-carboxamide] | 15 | 11 | 66.6 | 733
4 | Cc1cc(-c2cnc(C(=O)N[C@H](C(=O)N3C[C@H](Cl)[C@H]4OCC(=O)[C@H]43)C3CCCCC3)s2)ccn1 [Example 51, N-((S)-2-((3aS,6S,6aS)-6-chloro-3-oxotetrahydro-2H-furo[3,2-b]pyrrol-4(5H)-yl)-1-cyclohexyl-2-oxoethyl)-5-(2-methylpyridin-4-yl)thiazole-2-carboxamide] | 6 | 7 | 24.7 | 173
5 | O=C(N[C@H](C(=O)N1C[C@H](Cl)[C@H]2OCC(=O)[C@H]21)C1CCCCC1)c1ncc(-c2ccc(Cl)nc2)s1 [Example 52, N-((S)-2-((3aS,6S,6aS)-6-chloro-3-oxotetrahydro-2H-furo[3,2-b]pyrrol-4(5H)-yl)-1-cyclohexyl-2-oxoethyl)-5-(6-chloropyridin-3-yl)thiazole-2-carboxamide] | 7 | 14 | 14.5 | 203
6 | O=C(N[C@H](C(=O)N1C[C@H](Cl)[C@H]2OCC(=O)[C@H]21)C1CCCCC1)c1sc(-c2cncnc2)cc1F [Example 53, N-((S)-2-((3aS,6S,6aS)-6-chloro-3-oxotetrahydro-2H-furo[3,2-b]pyrrol-4(5H)-yl)-1-cyclohexyl-2-oxoethyl)-3-fluoro-5-(pyrimidin-5-yl)thiophene-2-carboxamide] | 40 | 34 | 8.9 | 302
7 | O=C(N[C@H](C(=O)N1C[C@H](Cl)[C@H]2OCC(=O)[C@H]21)C1CCCCC1)c1cc(F)c(-c2cccnn2)s1 [Example 54, N-((S)-2-((3aS,6S,6aS)-6-chloro-3-oxotetrahydro-2H-furo[3,2-b]pyrrol-4(5H)-yl)-1-cyclohexyl-2-oxoethyl)-4-fluoro-5-(pyridazin-3-yl)thiophene-2-carboxamide] | 27 | 21 | 25.1 | 528
8 | O=C(N[C@H](C(=O)N1C[C@H](Cl)[C@H]2OCC(=O)[C@H]21)C1CCCCC1)c1ncc(-c2cnc(C3CC3)nc2)s1 [Example 57, N-((S)-2-((3aS,6S,6aS)-6-chloro-3-oxotetrahydro-2H-furo[3,2-b]pyrrol-4(5H)-yl)-1-cyclohexyl-2-oxoethyl)-5-(2-cyclopropylpyrimidin-5-yl)thiazole-2-carboxamide] | 23 | 42 | 3.6 | 150
9 | O=C(N[C@H](C(=O)N1C[C@H](Cl)[C@H]2OCC(=O)[C@H]21)C1CCCCC1)c1sc(-c2cccnn2)cc1F [Example 59, N-((S)-2-((3aS,6S,6aS)-6-chloro-3-oxotetrahydro-2H-furo[3,2-b]pyrrol-4(5H)-yl)-1-cyclohexyl-2-oxoethyl)-3-fluoro-5-(pyridazin-3-yl)thiophene-2-carboxamide] | 0 | 118 | 6.2 | 726
10 | O=C(N[C@H](C(=O)N1C[C@H](Cl)[C@H]2OCC(=O)[C@H]21)C1CCCCC1)c1ccc(-c2cnc(C(F)(F)F)nc2)s1 [Example 61, N-((S)-2-((3aS,6S,6aS)-6-chloro-3-oxotetrahydro-2H-furo[3,2-b]pyrrol-4(5H)-yl)-1-cyclohexyl-2-oxoethyl)-5-(2-(trifluoromethyl)pyrimidin-5-yl)thiophene-2-carboxamide] | 0 | 76 | 4.0 | 302
11 | O=C(N[C@H](C(=O)N1C[C@H](Cl)[C@H]2OCC(=O)[C@H]21)C1CCCCC1)c1ncc(-c2ccc(C3CC3)nc2)s1 [Example 64, N-((S)-2-((3aS,6S,6aS)-6-chloro-3-oxotetrahydro-2H-furo[3,2-b]pyrrol-4(5H)-yl)-1-cyclohexyl-2-oxoethyl)-5-(6-cyclopropylpyridin-3-yl)thiazole-2-carboxamide] | 5 | 29 | 21.3 | 616

The remaining compounds from weak to strong by Ki [2], led by results:

Row | inhibition at 31.6 µM [1] [%] | Ki [2] [nM] | Selectivity Ki(hCatS)/Ki(hCatK) [3] | Ki [3] [nM] | Structure (SMILES)
12 | 11 | 104 | 2.3 | 238 | O=C(N[C@H](C(=O)N1C[C@H](Cl)[C@H]2OCC(=O)[C@H]21)C1CCCCC1)c1sc(-c2ccnnc2)cc1F [Example 60, N-((S)-2-((3aS,6S,6aS)-6-chloro-3-oxotetrahydro-2H-furo[3,2-b]pyrrol-4(5H)-yl)-1-cyclohexyl-2-oxoethyl)-3-fluoro-5-(pyridazin-4-yl)thiophene-2-carboxamide]
13 | 25 | 58 | 10.0 | 580 | O=C(N[C@H](C(=O)N1C[C@H](Cl)[C@H]2OCC(=O)[C@H]21)C1CCCCC1)c1ccc(-c2ccc(C(F)(F)F)nc2)s1 [Example 62, N-((S)-2-((3aS,6S,6aS)-6-chloro-3-oxotetrahydro-2H-furo[3,2-b]pyrrol-4(5H)-yl)-1-cyclohexyl-2-oxoethyl)-5-(6-(trifluoromethyl)pyridin-3-yl)thiophene-2-carboxamide]
14 | 21 | 34 | 1.5 | 51 | Cc1nnccc1-c1ccc(C(=O)N[C@H](C(=O)N2C[C@H](Cl)[C@H]3OCC(=O)[C@H]32)C2CCCCC2)s1 [Example 58, N-((S)-2-((3aS,6S,6aS)-6-chloro-3-oxotetrahydro-2H-furo[3,2-b]pyrrol-4(5H)-yl)-1-cyclohexyl-2-oxoethyl)-5-(3-methylpyridazin-4-yl)thiophene-2-carboxamide]
15 | 13 | 29 | 2.4 | 70 | O=C(N[C@H](C(=O)N1C[C@H](Cl)[C@H]2OCC(=O)[C@H]21)C1CCCCC1)c1ccc(-c2cnc(C3CC3)nc2)s1 [Example 55, N-((S)-2-((3aS,6S,6aS)-6-chloro-3-oxotetrahydro-2H-furo[3,2-b]pyrrol-4(5H)-yl)-1-cyclohexyl-2-oxoethyl)-5-(2-cyclopropylpyrimidin-5-yl)thiophene-2-carboxamide]
16 | 1 | 19 | 27.6 | 525 | O=C(N[C@H](C(=O)N1C[C@H](Cl)[C@H]2OCC(=O)[C@H]21)C1CCCCC1)c1ccc(-c2ccc(C3CC3)nc2)s1 [Example 63, N-((S)-2-((3aS,6S,6aS)-6-chloro-3-oxotetrahydro-2H-furo[3,2-b]pyrrol-4(5H)-yl)-1-cyclohexyl-2-oxoethyl)-5-(6-cyclopropylpyridin-3-yl)thiophene-2-carboxamide]
17 | 7 | 14 | 17.3 | 242 | O=C(N[C@H](C(=O)N1C[C@H](Cl)[C@H]2OCC(=O)[C@H]21)C1CCCCC1)c1ncc(-c2cnccn2)s1 [Example 48, N-((S)-2-((3aS,6S,6aS)-6-chloro-3-oxotetrahydro-2H-furo[3,2-b]pyrrol-4(5H)-yl)-1-cyclohexyl-2-oxoethyl)-5-(pyrazin-2-yl)thiazole-2-carboxamide]
18 | 20 | 6 | 16.6 | 92 | COc1cc(-c2ccc(C(=O)N[C@H](C(=O)N3C[C@H](Cl)[C@H]4OCC(=O)[C@H]43)C3CCCCC3)s2)ccn1 [Example 56, N-((S)-2-((3aS,6S,6aS)-6-chloro-3-oxotetrahydro-2H-furo[3,2-b]pyrrol-4(5H)-yl)-1-cyclohexyl-2-oxoethyl)-5-(2-methoxypyridin-4-yl)thiophene-2-carboxamide]
